Measurements as given in the NIST ThermoML archive (doi:10.1021/je800889y).

Assay: excess molar enthalpy (molar enthalpy of mixing); xn = mol fraction of the nth substance listed
Conditions: 101.3 kPa, Liquid, Flow calorimetry

CCOC(=O)CC(C)=O [ethyl 3-oxobutanoate] + CCC(C)O
excess molar enthalpy [kcal/mol]
Conditions	298.15 K	313.15 K	328.15 K	338.15 K	348.15 K
x1 = 0.1002	0.234	0.269	0.287	0.293	0.294
x1 = 0.1997	–	0.421	0.463	0.472	0.474
x1 = 0.2008	0.363	–	–	–	–
x1 = 0.2998	–	0.517	0.568	0.583	0.584
x1 = 0.3009	0.439	–	–	–	–
x1 = 0.3999	–	0.569	0.623	0.637	0.639
x1 = 0.4011	0.483	–	–	–	–
x1 = 0.45	–	0.583	0.631	0.646	0.647
x1 = 0.4512	0.493	–	–	–	–
x1 = 0.5004	–	0.583	0.629	0.641	0.644
x1 = 0.5017	0.496	–	–	–	–
x1 = 0.5499	–	0.576	0.616	0.624	0.626
x1 = 0.5512	0.492	–	–	–	–
x1 = 0.5995	–	0.555	0.592	0.598	0.6
x1 = 0.6009	0.48	–	–	–	–
x1 = 0.6493	–	0.527	0.557	0.558	0.56
x1 = 0.6507	0.46	–	–	–	–
x1 = 0.7007	0.43	0.486	0.507	0.508	0.508
x1 = 0.8005	0.338	0.37	0.38	0.381	0.383
x1 = 0.8999	0.192	0.208	0.211	0.212	0.212

CCOC(=O)CC(C)=O [ethyl 3-oxobutanoate] + CCCCCO
excess molar enthalpy [kcal/mol]
Conditions	298.15 K	313.15 K	328.15 K	338.15 K	348.15 K
x1 = 0.0998	0.218	0.251	0.269	0.282	0.283
x1 = 0.1996	0.331	0.399	0.443	0.46	0.461
x1 = 0.3006	0.409	0.49	0.55	0.571	0.572
x1 = 0.3505	0.432	0.521	0.587	0.606	0.606
x1 = 0.4001	0.449	0.541	0.608	0.629	0.632
x1 = 0.4504	0.46	0.554	0.621	0.641	0.644
x1 = 0.5003	0.465	0.557	0.622	0.641	0.644
x1 = 0.5498	0.463	0.551	0.612	0.63	0.632
x1 = 0.6	0.455	0.54	0.596	0.607	0.61
x1 = 0.6497	0.44	0.517	0.563	0.573	0.575
x1 = 0.7002	0.417	0.483	0.521	0.526	0.527
x1 = 0.7995	0.342	0.381	0.398	0.399	0.399
x1 = 0.9004	0.203	0.215	0.222	0.222	0.223

CCOC(=O)CC(C)=O [ethyl 3-oxobutanoate] + CCCCO
excess molar enthalpy [kcal/mol]
Conditions	298.15 K	313.15 K	328.15 K	338.15 K	348.15 K
x1 = 0.1003	0.218	0.239	0.267	0.271	0.277
x1 = 0.2002	0.337	0.374	0.433	0.445	0.454
x1 = 0.3	0.408	0.463	0.539	0.553	0.562
x1 = 0.3502	0.433	0.494	0.57	0.586	0.596
x1 = 0.3999	0.449	0.515	0.591	0.605	0.615
x1 = 0.45	0.459	0.531	0.6	0.615	0.623
x1 = 0.5005	0.462	0.532	0.599	0.613	0.619
x1 = 0.5501	0.459	0.524	0.589	0.6	0.605
x1 = 0.5999	0.449	0.507	0.567	0.577	0.578
x1 = 0.6499	0.431	0.482	0.537	0.543	0.543
x1 = 0.7	0.403	0.445	0.494	0.497	0.498
x1 = 0.8005	0.321	0.338	0.371	0.372	0.372
x1 = 0.9007	0.183	0.191	0.201	0.201	0.202

CCOC(=O)CC(C)=O [ethyl 3-oxobutanoate] + CCOC(C)=O
excess molar enthalpy [kcal/mol]
Conditions	298.15 K	313.15 K	328.15 K	338.15 K	348.15 K
x1 = 0.1005	0.00598	0.00598	0.00502	0.00454	0.00406
x1 = 0.1995	0.0098	0.01	0.00837	0.00789	0.00693
x1 = 0.2996	0.0124	0.0127	0.0105	0.0098	0.0086
x1 = 0.3495	0.0129	0.0136	0.0112	0.0105	0.00932
x1 = 0.3995	0.0134	0.0141	0.0115	0.011	0.0098
x1 = 0.4496	0.0136	0.0146	0.0117	0.0112	0.01
x1 = 0.4998	0.0134	0.0146	0.0115	0.011	0.01
x1 = 0.55	0.0131	0.0143	0.0112	0.0108	0.0098
x1 = 0.6001	0.0124	0.0139	0.0105	0.0103	0.00932
x1 = 0.6502	0.0117	0.0134	0.0098	0.0098	0.00908
x1 = 0.7001	0.011	0.0124	0.00884	0.00884	0.00837
x1 = 0.7994	0.00837	0.01	0.00645	0.00693	0.00645
x1 = 0.9004	0.00454	0.00669	0.0043	0.00406	0.00406

CCOC(=O)CC(C)=O [ethyl 3-oxobutanoate] + O
excess molar enthalpy [kcal/mol]
Conditions	298.15 K	313.15 K	328.15 K	338.15 K	348.15 K
x1 = 0.1502	0.0418	0.066	0.0923	0.113	0.133
x1 = 0.2994	0.102	0.143	0.187	0.222	0.26
x1 = 0.4491	0.163	0.22	0.283	0.334	0.386
x1 = 0.6014	0.221	0.294	0.375	0.436	0.462
x1 = 0.6499	–	–	–	0.427	0.452
x1 = 0.7001	0.258	0.335	0.379	0.406	0.427
x1 = 0.7514	0.27	0.315	0.35	0.374	0.386
x1 = 0.797	–	–	–	0.331	0.337
x1 = 0.8474	0.208	0.239	0.257	–	–
x1 = 0.9034	0.143	0.166	0.176	0.186	0.188
x1 = 0.9496	0.0765	0.092	0.0932	–	–
